According to PubChem BioAssay AID330 (DTP/NCI, 2004):
Several values for one entry are separate records, joined by “and”; a condition that tells them apart may be missing. Identical values can stand only once. Toxic doses and inconclusive results are not listed.

Tested on: P388 leukemia ip, CD2F1 mice, survival T/C
Assay: NCI In Vivo Anticancer Drug Screen. Data for tumor model P388 Leukemia (intraperitoneal) in CD2F1 (CDF1) mice
Settings: endpoint: median survival time, higher = longer survival
Outline: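 Mice carrying the transplanted tumor received test compound or vehicle. Survival was recorded in each group, and the value is the treated-group measurement divided by that of the vehicle-treated control group.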

[1] = dose: 50.0 mg/kg/injection, schedule: Q01DX005 (ip), vehicle: saline with Tween-80
[2] = dose: 50.0 mg/kg/injection, schedule: Q01DX005 (ip), vehicle: Klucel (hydroxypropylcellulose) (HPC)
[3] = dose: 100.0 mg/kg/injection, schedule: Q01DX005 (ip), vehicle: Klucel (hydroxypropylcellulose) (HPC)
[4] = dose: 200.0 mg/kg/injection, schedule: Q01DX005 (ip), vehicle: Klucel (hydroxypropylcellulose) (HPC)
[5] = dose: 12.5 mg/kg/injection, schedule: Q01DX009 (ip), vehicle: saline with Tween-80
[6] = dose: 25.0 mg/kg/injection, schedule: Q01DX009 (ip), vehicle: saline with Tween-80
[7] = dose: 50.0 mg/kg/injection, schedule: Q01DX009 (ip), vehicle: saline with Tween-80
[8] = dose: 100.0 mg/kg/injection, schedule: Q01DX009 (ip), vehicle: saline with Tween-80
[9] = dose: 200.0 mg/kg/injection, schedule: Q01DX009 (ip), vehicle: saline with Tween-80
[10] = dose: 6.25 mg/kg/injection, schedule: Q01DX005 (ip), vehicle: saline with Tween-80
[11] = dose: 12.5 mg/kg/injection, schedule: Q01DX005 (ip), vehicle: saline with Tween-80
[12] = dose: 25.0 mg/kg/injection, schedule: Q01DX005 (ip), vehicle: saline with Tween-80
[13] = dose: 6.25 mg/kg/injection, schedule: Q01DX005 (ip), vehicle: Klucel (hydroxypropylcellulose) (HPC)
[14] = dose: 12.5 mg/kg/injection, schedule: Q01DX005 (ip), vehicle: Klucel (hydroxypropylcellulose) (HPC)
[15] = dose: 25.0 mg/kg/injection, schedule: Q01DX005 (ip), vehicle: Klucel (hydroxypropylcellulose) (HPC)
[16] = dose: 50.0 mg/kg/injection, schedule: Q01DX009 (ip), vehicle: saline
[17] = dose: 100.0 mg/kg/injection, schedule: Q01DX009 (ip), vehicle: Klucel (hydroxypropylcellulose) (HPC)
[18] = dose: 100.0 mg/kg/injection, schedule: Q04DX002 (ip), vehicle: saline with Tween-80
[19] = dose: 200.0 mg/kg/injection, schedule: Q04DX002 (ip), vehicle: saline with Tween-80
[20] = dose: 100.0 mg/kg/injection, schedule: Q01DX009 (ip), vehicle: saline

With `CCO/C=N/NC(=O)c1n[nH]c2ccccc12` the T/C [1] was 106 % of control, the T/C (dose: 100.0 mg/kg/injection, schedule: Q01DX005 (ip), vehicle: saline with Tween-80) was 100 % of control and the T/C (dose: 200.0 mg/kg/injection, schedule: Q01DX005 (ip), vehicle: saline with Tween-80) was 106 % of control.
With `Cc1nc2ccccc2c2nnc(SCC(=O)N(Cc3ccccc3)c3ccccc3)n12` the T/C [2] was 99 % of control, the T/C [3] was 100 % of control and the T/C [4] was 102 % of control.
For `CC(C)(C)C1=CC2(c3ccccn3)C(Cl)C(=O)N2NC(c2ccccn2)=N1` (configuration not stated), the T/C (dose: 25.0 mg/kg/injection, schedule: Q01DX009 (ip), vehicle: other) was 98 % of control, the T/C (dose: 50.0 mg/kg/injection, schedule: Q01DX009 (ip), vehicle: other) was 101 % of control and the T/C (dose: 100.0 mg/kg/injection, schedule: Q01DX009 (ip), vehicle: other) was 98 % of control. For the same molecule, the T/C (dose: 200.0 mg/kg/injection, schedule: Q01DX009 (ip), vehicle: other) was 93 % of control.
In the case of `CCCCCCC(=O)/C=C/c1cc(OC)ccc1OC`, the T/C [5] was 100 % of control, the T/C [6] was 99 % of control and the T/C [7] was 99 % of control. For the same molecule, the T/C [8] was 99 % of control and 96 % of control and the T/C [9] was 97 % of control.
In the case of `O=[N+]([O-])c1ccc2c(ccc3sc4ccccc4[n+]32)c1`, the T/C [10] was 95 % of control, the T/C [11] was 108 % of control and the T/C [12] was 111 % of control. The T/C [1] was 112 % of control.
For `Cc1cc(C)c(OC(=O)N(CCCl)N=O)c(C)c1`, the T/C (dose: 3.12 mg/kg/injection, schedule: Q01DX001 (ip), vehicle: saline with Tween-80) was 111 % of control and the T/C (dose: 6.25 mg/kg/injection, schedule: Q01DX001 (ip), vehicle: saline with Tween-80) was 116 % of control.
In the case of `CCOC(=O)Cn1/c(=N/N=C/c2ccc([N+](=O)[O-])o2)sc2cc(OC)ccc21`, the T/C (dose: 3.75 mg/kg/injection, schedule: Q01DX005 (ip), vehicle: saline with Tween-80) was 97 % of control, the T/C (dose: 7.5 mg/kg/injection, schedule: Q01DX005 (ip), vehicle: saline with Tween-80) was 90 % of control and the T/C (dose: 60.0 mg/kg/injection, schedule: Q01DX005 (ip), vehicle: Klucel (hydroxypropylcellulose) (HPC)) was 87 % of control. The T/C (dose: 240.0 mg/kg/injection, schedule: Q01DX005 (ip), vehicle: Klucel (hydroxypropylcellulose) (HPC)) was 86 % of control.
`CC(C(=O)O)[As](=O)(O)O` (configuration not stated) was tested, and the T/C (dose: 100.0 mg/kg/injection, schedule: Q04DX003 (ip), vehicle: saline) was 102 % of control, the T/C (dose: 200.0 mg/kg/injection, schedule: Q04DX003 (ip), vehicle: saline) was 99 % of control and the T/C (dose: 400.0 mg/kg/injection, schedule: Q04DX003 (ip), vehicle: saline) was 98 % of control.
With `Cc1ccc(S(=O)(=O)CS(N)(=O)=O)cc1` the T/C (dose: 100.0 mg/kg/injection, schedule: Q01DX001 (ip), vehicle: saline with Tween-80) was 99 % of control, the T/C (dose: 200.0 mg/kg/injection, schedule: Q01DX001 (ip), vehicle: saline with Tween-80) was 118 % of control and the T/C (dose: 400.0 mg/kg/injection, schedule: Q01DX001 (ip), vehicle: saline with Tween-80) was 97 % of control.
For `Cc1ccc(S(=O)(=O)CC(=O)c2ccc(Br)cc2)cc1`, the T/C [8] was 92 % of control.
In the case of `CCN(CC)C(=NC(C)(C)C)c1ccccc1`, the T/C (dose: 3.12 mg/kg/injection, schedule: Q01DX009 (ip), vehicle: saline) was 101 % of control and 93 % of control and 97 % of control, the T/C [13] was 107 % of control and the T/C (dose: 6.25 mg/kg/injection, schedule: Q01DX009 (ip), vehicle: saline) was 96 % of control and 97 % of control. For the same molecule, the T/C [14] was 100 % of control, the T/C [15] was 107 % of control and the T/C [16] was 99 % of control.
In the case of `CCSc1nc2ccc(N=Cc3ccccc3O)cc2s1`, the T/C (dose: 12.5 mg/kg/injection, schedule: Q01DX009 (ip), vehicle: Klucel (hydroxypropylcellulose) (HPC)) was 99 % of control and 88 % of control, the T/C (dose: 25.0 mg/kg/injection, schedule: Q01DX009 (ip), vehicle: Klucel (hydroxypropylcellulose) (HPC)) was 101 % of control and 93 % of control and the T/C [17] was 106 % of control and 218 % of control and 91 % of control.
In the case of `CCOC(=O)N1CCN(CCCCCOc2ccccc2C2CCCCC2)CC1`, the T/C [7] was 110 % of control, the T/C [8] was 108 % of control and the T/C [9] was 124 % of control. The T/C (dose: 400.0 mg/kg/injection, schedule: Q01DX009 (ip), vehicle: saline with Tween-80) was 115 % of control.
In the case of `[O]=[Nb]`, the T/C (dose: 2.5 mg/kg/injection, schedule: Q01DX009 (ip), vehicle: saline with Tween-80) was 100 % of control and the T/C (dose: 5.0 mg/kg/injection, schedule: Q01DX009 (ip), vehicle: saline with Tween-80) was 100 % of control.
`COC(=O)Nc1c2c(nc3ccccc13)-c1ccccc1C(C)(C)C2` was tested, and the T/C [2] was 103 % of control, the T/C [3] was 101 % of control and the T/C [4] was 98 % of control.
In the case of `Nc1ccc2[se]nc3c2c1C(=O)c1ccccc1-3`, the T/C [13] was 98 % of control, the T/C [14] was 98 % of control and the T/C [15] was 101 % of control.
`CCOC(=O)C1=S=C(SC)N(C)C1=O` was tested, and the T/C [7] was 107 % of control and the T/C [8] was 107 % of control.
`Cc1cc(C)c(F)[c]([Hg][Br])c1N` was tested, and the T/C (dose: 0.78 mg/kg/injection, schedule: Q01DX005 (ip), vehicle: Klucel (hydroxypropylcellulose) (HPC)) was 89 % of control, the T/C (dose: 1.56 mg/kg/injection, schedule: Q01DX005 (ip), vehicle: Klucel (hydroxypropylcellulose) (HPC)) was 92 % of control and the T/C [13] was 90 % of control and 92 % of control.
For `[Cu+2].[O-]/C(=N\N=C\c1ccccn1)c1ccccc1O.[O-]/C(=N\N=C\c1ccccn1)c1ccccc1O`, the T/C (dose: 50.0 mg/kg/injection, schedule: Q04DX002 (ip), vehicle: saline with Tween-80) was 98 % of control, the T/C [18] was 95 % of control and the T/C [19] was 94 % of control.
With `CCn1nccc1N` the T/C [10] was 98 % of control, the T/C [11] was 106 % of control and the T/C [12] was 104 % of control.
In the case of `c1ccc(CCc2ccnc3c2ccc2ccccc23)cc1`, the T/C (dose: 25.0 mg/kg/injection, schedule: Q04DX003 (ip), vehicle: Klucel (hydroxypropylcellulose) (HPC)) was 112 % of control, the T/C (dose: 50.0 mg/kg/injection, schedule: Q04DX003 (ip), vehicle: Klucel (hydroxypropylcellulose) (HPC)) was 99 % of control and the T/C (dose: 100.0 mg/kg/injection, schedule: Q04DX003 (ip), vehicle: Klucel (hydroxypropylcellulose) (HPC)) was 99 % of control.
`CC(C)N1CCOC(c2cccc(C(F)(F)F)c2)C1` (configuration not stated) was tested, and the T/C [16] was 101 % of control and the T/C [20] was 99 % of control.
With `S=C(S)NN1CCCC1` the T/C [5] was 100 % of control, the T/C [6] was 100 % of control and the T/C [7] was 100 % of control.
For `CC(C)(C)C(=O)Nc1ccc(S(=O)(=O)Nc2ccc(N)cc2O)cc1`, the T/C (dose: 50.0 mg/kg/injection, schedule: Q01DX009 (ip), vehicle: Klucel (hydroxypropylcellulose) (HPC)) was 112 % of control, the T/C [17] was 97 % of control and the T/C (dose: 200.0 mg/kg/injection, schedule: Q01DX009 (ip), vehicle: Klucel (hydroxypropylcellulose) (HPC)) was 115 % of control.
`COc1ccc2c(=O)c(S)coc2c1` was tested, and the T/C (dose: 60.0 mg/kg/injection, schedule: Q01DX005 (ip), vehicle: saline with Tween-80) was 100 % of control, the T/C (dose: 120.0 mg/kg/injection, schedule: Q01DX005 (ip), vehicle: saline with Tween-80) was 101 % of control and the T/C (dose: 240.0 mg/kg/injection, schedule: Q01DX005 (ip), vehicle: saline with Tween-80) was 100 % of control.
For `COc1ccc2c(c1)CCc1c-2nc[nH]c1=O`, the T/C [18] was 103 % of control, the T/C [19] was 96 % of control and the T/C (dose: 400.0 mg/kg/injection, schedule: Q04DX002 (ip), vehicle: saline with Tween-80) was 96 % of control.
With `CN(CNC(N)=O)N=O` the T/C (dose: 50.0 mg/kg/injection, schedule: Q01DX009 (ip), vehicle: water) was 99 % of control, the T/C (dose: 100.0 mg/kg/injection, schedule: Q01DX009 (ip), vehicle: water) was 108 % of control and the T/C (dose: 200.0 mg/kg/injection, schedule: Q01DX009 (ip), vehicle: water) was 107 % of control.
In the case of `C=CC1(O)CCCCC1`, the T/C [16] was 97 % of control, the T/C [20] was 100 % of control and the T/C (dose: 200.0 mg/kg/injection, schedule: Q01DX009 (ip), vehicle: saline) was 107 % of control.
